# Source: PMC3069973, “A Fungal Metabolite Asperparaline A Strongly and Selectively Blocks Insect Nicotinic Acetylcholine Receptors: The First Report on the Mode of Action” (PLoS ONE, 2011)
# Assays:
# [1] = system: T1, nicotinic acetylcholine receptor (native nAChRs of silkworm larval brain neurons, subunits not identified); assay: whole-cell patch-clamp, agonist concentration-response; assay type: cell-based, Bombyx mori
# T1 construct: native receptors in cultured larval brain neurons
# [2] = molecular target: T2, L-glutamate-gated chloride channel (native, silkworm larval brain neurons, subunits not identified) (Bombyx mori, UniProt V9P9S1); assay: whole-cell patch-clamp, agonist-evoked current at […] (stated to be close to EC50); assay type: cell-based
# T2 construct: native receptors in cultured larval brain neurons
# T2 sequence (V9P9S1 25-446): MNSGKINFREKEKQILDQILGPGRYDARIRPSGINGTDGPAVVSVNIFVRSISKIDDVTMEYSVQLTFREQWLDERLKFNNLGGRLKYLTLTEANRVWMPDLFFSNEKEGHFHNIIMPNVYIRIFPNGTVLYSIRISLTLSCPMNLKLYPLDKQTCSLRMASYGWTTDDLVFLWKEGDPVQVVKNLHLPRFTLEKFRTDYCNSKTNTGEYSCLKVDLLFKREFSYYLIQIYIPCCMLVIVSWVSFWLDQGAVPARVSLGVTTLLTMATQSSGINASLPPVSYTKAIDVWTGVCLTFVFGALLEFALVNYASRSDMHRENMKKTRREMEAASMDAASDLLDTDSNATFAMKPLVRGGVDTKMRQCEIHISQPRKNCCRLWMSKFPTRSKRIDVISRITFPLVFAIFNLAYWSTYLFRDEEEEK
# [3] = molecular target: T3, α3β4 nicotinic acetylcholine receptor (Gallus gallus, UniProt P09481+P26153); assay: two-electrode voltage-clamp, weak block:[…] reduction of the ACh response at […]; assay type: cell-based
# T3 construct: gene CHRNA3; chicken α3β4 nAChR expressed in Xenopus laevis oocytes; with nAChR β4 subunit
# T3 sequence (P09481 23-496): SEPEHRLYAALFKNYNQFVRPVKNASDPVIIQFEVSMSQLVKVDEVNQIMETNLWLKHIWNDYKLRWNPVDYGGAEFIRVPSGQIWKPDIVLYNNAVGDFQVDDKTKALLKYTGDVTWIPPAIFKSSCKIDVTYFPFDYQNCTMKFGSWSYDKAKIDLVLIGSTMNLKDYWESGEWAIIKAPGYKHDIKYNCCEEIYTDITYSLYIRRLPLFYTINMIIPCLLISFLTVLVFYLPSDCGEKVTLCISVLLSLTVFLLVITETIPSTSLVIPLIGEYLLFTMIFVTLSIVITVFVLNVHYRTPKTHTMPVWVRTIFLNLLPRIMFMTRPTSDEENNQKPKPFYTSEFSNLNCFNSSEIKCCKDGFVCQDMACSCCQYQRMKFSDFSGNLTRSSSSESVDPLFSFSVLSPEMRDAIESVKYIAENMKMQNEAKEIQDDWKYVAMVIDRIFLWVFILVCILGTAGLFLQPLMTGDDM
# T3 sequence (P26153 4-470): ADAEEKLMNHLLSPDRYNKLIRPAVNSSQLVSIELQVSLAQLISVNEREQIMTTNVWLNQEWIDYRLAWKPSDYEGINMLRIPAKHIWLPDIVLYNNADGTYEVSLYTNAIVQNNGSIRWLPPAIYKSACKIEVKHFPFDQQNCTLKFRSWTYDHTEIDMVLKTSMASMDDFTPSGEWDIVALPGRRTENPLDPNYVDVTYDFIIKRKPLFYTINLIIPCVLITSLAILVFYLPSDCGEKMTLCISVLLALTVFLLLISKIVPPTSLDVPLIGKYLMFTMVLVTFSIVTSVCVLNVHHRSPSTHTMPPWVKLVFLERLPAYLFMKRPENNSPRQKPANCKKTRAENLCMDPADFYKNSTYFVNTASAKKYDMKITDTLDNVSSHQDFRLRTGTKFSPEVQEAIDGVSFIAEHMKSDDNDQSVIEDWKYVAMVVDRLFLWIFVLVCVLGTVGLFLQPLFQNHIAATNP
# [4] = system: T1, nicotinic acetylcholine receptor (native nAChRs of silkworm larval brain neurons, subunits not identified); assay: whole-cell patch-clamp, block of peak ACh-induced current (slowly desensitizing current IC50 […]); assay type: cell-based, Bombyx mori
structure (smiles),measurement,setting,value
N[C@@H](CCC(=O)O)C(=O)O [L-glutamate],EC50,[2],~ 30 µM
C[C@H]1CCN2C[C@]34C[C@]5(CC(=O)N(C)C5=O)C(C)(C)[C@@H]3C[C@]12C(=O)N4C [asperparaline A],inhibition at 10 µM,[3],33.4%
same,IC50,[4],20.2 nM
